Reference: the NIST ThermoML archive (doi:10.1016/j.fluid.2018.07.020)
Numbers after ± are expanded uncertainties.

What was measured:
[1] = for Normal melting temperature: Crystal 1, DTA; for Triple point temperature: Crystal 2, DSC
[2] = Molar enthalpy of transition or fusion; conditions: DSC

Row | Normal melting temperature [1] [°C] | Triple point temperature [1] [K] | Molar enthalpy of transition or fusion ([2]; Crystal 1) [kcal/mol] | Molar enthalpy of transition or fusion ([2]; Crystal 2) [kcal/mol] | SMILES
1 | 172.88 ± 0.71 | 360.22 ± 0.94 | 3.66 ± 0.359 | 2.32 ± 0.335 | CC[N+](CC)(CC)CCCS(=O)(=O)[O-] [3-(triethylammonio)propane-1-sulfonate]
2 | 273.89 ± 0.71 |  | 9.44 ± 0.335 |  | O=S(=O)([O-])CCC[n+]1ccccc1 [[PyC3S]]
3 | 199.60 ± 0.71 | 407.51 ± 0.94 | 4.31 ± 0.669 | 1.43 ± 0.669 | CCCCCC[N+](CCCCCC)(CCCCCC)CCCCS(=O)(=O)[O-] [4-(trihexylammonio)butane-1-sulfonate]
4 | 173.57 ± 0.71 |  | 4.71 ± 0.55 |  | CCCC[P+](CCCC)(CCCC)CCCCS(=O)(=O)[O-] [4-(tributylphosphonio)butane-1-sulfonate]
5 | 206.74 ± 0.71 |  | 6.79 ± 0.645 |  | CCCCCC[N+](CCCCCC)(CCCCCC)CCCS(=O)(=O)[O-] [3-(trihexylammonio)propane-1-sulfonate]
6 | 160.02 ± 0.71 | 379.9 ± 0.94 | 2.32 ± 0.526 | 3.08 ± 0.526 | CCCC[P+](CCCC)(CCCC)CCCS(=O)(=O)[O-] [3-(tributylphosphonio)propane-1-sulfonate]
